Starred links: 1 amine or outer side, 2 acyl side, 3 side chain; linkers in the order of their positions; H or OH if unused. Positions of bridges follow the written chain, without caps; N, C: chain ends. Non-standard residues stand in square brackets, D forms with d. Residues, ends and D or L forms follow the SMILES beside them. Groups on a side chain read outwards from the residue. *: point of attachment. X29 = O=C(O)CCCCCCCCCCCCCCCCC(=O)N[C@H](CCC(=O)NCCCC[C@@H](NC(=O)NCC(=O)[C@H](CSCC(=O)[*:1])N[*:2])C(=O)O)C(=O)O; X6 = O=C(O)CCCCCCCCCCCCCCCCC(=O)N[C@@H](CCC(=O)NCCCOCCOCCOCCCN*)C(=O)O; X13 = O=C(O)CCCCCCCCCCCCCCC(=O)N[C@@H](CCC(=O)NCCCOCCOCCOCCCN*)C(=O)O; Trp(1-CH2COOH) = N[C@@H](Cc1cn(CC(=O)O)c2ccccc12)C(=O)O; X9 = O=C(O)CCCCCCCCCCCCCCCCC(=O)N[C@@H](CCN*)C(=O)O; NH(CH2)14COOH = O=C(O)CCCCCCCCCCCCCCN*; Phe(4-F) = N[C@@H](Cc1ccc(F)cc1)C(=O)O; γGlu = O=C(O)[C@H](CCC(=O)[*:2])N[*:1]; d(cisHyp) = O=C(O)[C@H]1C[C@@H](O)CN1; PEG6 = NCCOCCOCCOCCOCCOCCOCCC(=O)O; Palmitoyl = CCCCCCCCCCCCCCCC(=O)*; Hyp = O=C(O)[C@@H]1C[C@@H](O)CN1; Myristoyl = CCCCCCCCCCCCCC(=O)*; NMeNle = CCCC[C@H](NC)C(=O)O; Pip = O=C(O)[C@@H]1CCCCN1; NMeA = CN[C@@H](C)C(=O)O; Pra = C#CC[C@H](N)C(=O)O; Aun = NCCCCCCCCCCC(=O)O; Dab = NCC[C@H](N)C(=O)O; Dap = NC[C@H](N)C(=O)O; Sar = CNCC(=O)O
Target: T1, PD-L1 (Homo sapiens, UniProt Q9NZQ7)
T1 construct: hPDL1(19-239)-TVMV-His; made in house; host or cells: HEK293T
Assay: PD-1/PD-L1 Homogenous Time-Resolved Fluorescence (HTRF) binding assay (PD-1-Ig/PD-L1-His)
Conditions: inhibition of PD-1-Ig binding to PD-L1-TVMV-His; value given as number; read-out: HTRF IC50
In short: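 HTRF competition in dPBS with 0.1% BSA and 0.05% Tween-20: 20 nM PD-1-Ig added after 15 min compound pre-incubation with 10 nM PD-L1-His, then another 15 min. Signal (665/620 nm) after 30 min with APC anti-His (20 nM) and Eu anti-Ig (1 nM).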

T1 sequence (Q9NZQ7 with tags, fused parts or gaps): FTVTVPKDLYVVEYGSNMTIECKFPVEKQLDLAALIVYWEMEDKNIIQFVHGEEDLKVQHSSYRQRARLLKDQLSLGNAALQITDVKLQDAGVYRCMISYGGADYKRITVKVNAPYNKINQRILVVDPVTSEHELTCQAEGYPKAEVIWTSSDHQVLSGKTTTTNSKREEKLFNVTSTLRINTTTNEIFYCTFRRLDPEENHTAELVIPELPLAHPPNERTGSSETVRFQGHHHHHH

IC50 | SMILES
259 nM | CCCCCCCCCCCCCC(=O)NCCCC[C@H](NC(=O)[C@H](CC(=O)O)NC(=O)CCOCCOCCOCCOCCOCCOCCNC(=O)[C@H](CC(=O)O)NC(=O)CNC(=O)[C@@H]1CSCC(=O)N[C@@H](Cc2ccc(O)cc2)C(=O)N(C)[C@@H](C)C(=O)N[C@@H](CC(=O)O)C(=O)N2CCC[C@H]2C(=O)N[C@@H](Cc2cnc[nH]2)C(=O)N[C@@H](CC(C)C)C(=O)N2C[C@H](O)C[C@H]2C(=O)N[C@@H](Cc2c[nH]c3ccccc23)C(=O)N[C@@H](CO)C(=O)N[C@@H](Cc2c[nH]c3ccccc23)C(=O)N(C)[C@@H](CCCC)C(=O)N(C)[C@@H](CCCC)C(=O)N[C@@H](CCCNC(=N)N)C(=O)N1)C(N)=O [Example 11017] ({CH2CO}-Y[NMeA]DPHL[Hyp]WSW[NMeNle][NMeNle]RCGD[PEG6]DK(Myristoyl)-NH2; thioether N-14)

Same assay, conditions: inhibition of PD-1-Ig binding to PD-L1-TVMV-His; value given as range class; read-out: HTRF IC50

SMILES | IC50
CCCCCCCCCCCCCC(=O)NCc1cn(CC[C@H](NC(=O)CNC(=O)[C@@H]2CSCC(=O)N[C@@H](Cc3ccc(O)cc3)C(=O)N(C)[C@@H](C)C(=O)N[C@@H](CC(N)=O)C(=O)N3CCC[C@H]3C(=O)N[C@@H](CN)C(=O)N[C@@H](CC(C)C)C(=O)N3C[C@H](O)C[C@H]3C(=O)N[C@@H](Cc3c[nH]c4ccccc34)C(=O)N[C@@H](CO)C(=O)N[C@@H](Cc3csc4ccccc34)C(=O)N(C)[C@@H](CCCC)C(=O)N(C)[C@@H](CCCC)C(=O)N[C@@H](CCCNC(=N)N)C(=O)N2)C(N)=O)nn1 [Example 13051] | 10 to 99 nM
C#CC[C@H](NC(=O)CNC(=O)[C@@H]1CSCC(=O)N[C@@H](Cc2ccc(O)cc2)C(=O)N2CCCC[C@H]2C(=O)N[C@@H](CC(N)=O)C(=O)N2CCC[C@H]2C(=O)N[C@@H](CN)C(=O)N[C@@H](CC(C)C)C(=O)N2C[C@H](O)C[C@H]2C(=O)N[C@@H](Cc2c[nH]c3ccccc23)C(=O)N[C@@H](CCN)C(=O)N[C@@H](Cc2cn(CC(=O)O)c3ccccc23)C(=O)N(C)[C@@H](CCCC)C(=O)N(C)[C@@H](CCCC)C(=O)N[C@@H](CCC(=O)O)C(=O)N1)C(=O)O [INT130AJ] ({CH2CO}-Y[Pip]NP[Dap]L[Hyp]W[Dab][Trp(1-CH2COOH)][NMeNle][NMeNle]ECG[Pra]-OH; thioether N-14) | 0.3 to 9.9 nM
CCCCCCCCCCCCCC(=O)N[C@@H](CCC(=O)NCCCC[C@H](NC(=O)CNC(=O)CNC(=O)CNC(=O)[C@@H]1CSCC(=O)N[C@@H](Cc2ccc(O)cc2)C(=O)N(C)[C@@H](C)C(=O)N[C@@H](CC(N)=O)C(=O)N2CCC[C@H]2C(=O)N[C@@H](Cc2cnc[nH]2)C(=O)N[C@@H](CC(C)C)C(=O)N2C[C@H](O)C[C@H]2C(=O)N[C@@H](Cc2c[nH]c3ccccc23)C(=O)N[C@@H](CO)C(=O)N[C@@H](Cc2c[nH]c3ccccc23)C(=O)N(C)[C@@H](CCCC)C(=O)N(C)[C@@H](CCCC)C(=O)N[C@@H](CCCNC(=N)N)C(=O)N1)C(N)=O)C(=O)O [Example 11116] ({CH2CO}-Y[NMeA]NPHL[Hyp]WSW[NMeNle][NMeNle]RCGGGK([γGlu-Myristoyl])-NH2; thioether N-14) | 10 to 99 nM
CCCCCCCCCCCCCCCC(=O)NCCCC[C@H](NC(=O)CNC(=O)[C@@H]1CSCC(=O)N[C@@H](Cc2ccc(O)cc2)C(=O)N(C)[C@@H](C)C(=O)N[C@@H](CC(N)=O)C(=O)N2CCC[C@H]2C(=O)N[C@@H](CCN)C(=O)N[C@@H](CC(C)C)C(=O)N2C[C@H](O)C[C@H]2C(=O)N[C@@H](Cc2c[nH]c3ccccc23)C(=O)N[C@@H](CO)C(=O)N[C@@H](Cc2c[nH]c3ccccc23)C(=O)N(C)[C@@H](CCCC)C(=O)N(C)[C@@H](CCCC)C(=O)N[C@@H](CCCNC(=N)N)C(=O)N1)C(N)=O [Example 11020] ({CH2CO}-Y[NMeA]NP[Dab]L[Hyp]WSW[NMeNle][NMeNle]RCGK(Palmitoyl)-NH2; thioether N-14) | 100 to 1600 nM
CCCC[C@H]1C(=O)N(C)[C@@H](CCCC)C(=O)N[C@@H](CC(C)C)C(=O)N[C@H](C(=O)NCC(=O)N[C@@H](CCC(=O)NCC[C@H](NC(=O)CCCCCCCCCCCCCCCCC(=O)O)C(=O)O)C(=O)O)CSCC(=O)N[C@@H](Cc2ccc(F)cc2)C(=O)N2CCCC[C@H]2C(=O)N[C@@H](CC(=O)O)C(=O)N2CCC[C@H]2C(=O)N[C@@H](CN)C(=O)N[C@@H](CC(C)C)C(=O)N2C[C@H](O)C[C@H]2C(=O)N[C@@H](Cc2c[nH]c3ccccc23)C(=O)N[C@@H](CCN)C(=O)N[C@@H](Cc2cn(CC(=O)O)c3ccccc23)C(=O)N1C [Example 13148] ({CH2CO}-[Phe(4-F)][Pip]DP[Dap]L[Hyp]W[Dab][Trp(1-CH2COOH)][NMeNle][NMeNle]LCGE(X9)-OH; thioether N-14) | 10 to 99 nM
CCCC[C@H]1C(=O)N(C)[C@@H](CCCC)C(=O)N[C@@H](CC(C)C)C(=O)N[C@H](C(=O)NCC(=O)N[C@@H](CCC(=O)O)C(=O)NCCCOCCOCCOCCCNC(=O)CC[C@H](NC(=O)CCCCCCCCCCCCCCCCC(=O)O)C(=O)O)CSCC(=O)N[C@@H](Cc2ccc(F)cc2)C(=O)N2CCCC[C@H]2C(=O)N[C@@H](CC(=O)O)C(=O)N2CCC[C@H]2C(=O)N[C@@H](CN)C(=O)N[C@@H](CCC(=O)O)C(=O)N2C[C@H](O)C[C@H]2C(=O)N[C@@H](Cc2c[nH]c3ccccc23)C(=O)N[C@@H](CCN)C(=O)N[C@@H](Cc2cn(CC(=O)O)c3ccccc23)C(=O)N1C [Example 11265] ({CH2CO}-[Phe(4-F)][Pip]DP[Dap]E[Hyp]W[Dab][Trp(1-CH2COOH)][NMeNle][NMeNle]LCGE-X6; thioether N-14) | 10 to 99 nM

The next lines start with the values.

IC50 | SMILES
10 to 99 nM | CCCC[C@H]1C(=O)N(C)[C@@H](CCCC)C(=O)N[C@@H](CC(C)C)C(=O)N[C@H](C(=O)CNC(=O)N[C@H](CCCCNC(=O)CC[C@@H](NC(=O)CCCCCCCCCCCCCCCCC(=O)O)C(=O)O)C(=O)O)CSCC(=O)N[C@@H](Cc2ccc(O)cc2)C(=O)N(C)[C@@H](C)C(=O)N[C@@H](CC(N)=O)C(=O)N2CCC[C@H]2C(=O)N[C@@H](CN)C(=O)N[C@@H](CC(C)C)C(=O)N2C[C@H](O)C[C@H]2C(=O)N[C@@H](Cc2c[nH]c3ccccc23)C(=O)N[C@@H](CCN)C(=O)N[C@@H](Cc2cn(CC(=O)O)c3ccccc23)C(=O)N1C [Example 11134] (Y[NMeA]NP[Dap]L[Hyp]W[Dab][Trp(1-CH2COOH)][NMeNle][NMeNle]L; linker N-C via X29)
10 to 99 nM | CCCC[C@H]1C(=O)N(C)[C@@H](CCCC)C(=O)N[C@@H](CC(C)C)C(=O)N[C@H](C(=O)NCC(=O)N[C@H](CC(=O)O)C(=O)NCCCCCCCCCCCCCCC(=O)O)CSCC(=O)N[C@@H](Cc2ccc(O)cc2)C(=O)N(C)[C@@H](C)C(=O)N[C@@H](CC(N)=O)C(=O)N2CCC[C@H]2C(=O)N[C@@H](CN)C(=O)N[C@@H](CC(C)C)C(=O)N2C[C@H](O)C[C@H]2C(=O)N[C@@H](Cc2c[nH]c3ccccc23)C(=O)N[C@@H](CCN)C(=O)N[C@@H](Cc2cn(CC(=O)O)c3ccccc23)C(=O)N1C [Example 11195] ({CH2CO}-Y[NMeA]NP[Dap]L[Hyp]W[Dab][Trp(1-CH2COOH)][NMeNle][NMeNle]LCG[dD]-{NH(CH2)14COOH}; thioether N-14)
0.3 to 9.9 nM | CCCC[C@H]1C(=O)N(C)[C@@H](CCCC)C(=O)N[C@@H](CC(C)C)C(=O)N[C@H](C(=O)NCC(=O)NCCCOCCOCCOCCCNC(=O)CC[C@H](NC(=O)CCCCCCCCCCCCCCC(=O)O)C(=O)O)CSCC(=O)N[C@@H](Cc2ccc(O)cc2)C(=O)N(C)[C@@H](C)C(=O)N[C@@H](CC(N)=O)C(=O)N2CCC[C@@H]2C(=O)N[C@@H](CN)C(=O)N[C@@H](CC(C)C)C(=O)N2C[C@H](O)C[C@@H]2C(=O)N[C@@H](Cc2c[nH]c3ccccc23)C(=O)N[C@@H](CCN)C(=O)N[C@@H](Cc2cn(CC(=O)O)c3ccccc23)C(=O)N1C [Example 11168] ({CH2CO}-Y[NMeA]N[dP][Dap]L[d(cisHyp)]W[Dab][Trp(1-CH2COOH)][NMeNle][NMeNle]LCG-X13; thioether N-14)
0.3 to 9.9 nM | CCCC[C@H]1C(=O)N(C)[C@@H](CCCC)C(=O)N[C@@H](CC(C)C)C(=O)N[C@H](C(=O)N(C)CC(=O)NCCCOCCOCCOCCCNC(=O)CC[C@H](NC(=O)CCCCCCCCCCCCCCC(=O)O)C(=O)O)CSCC(=O)N[C@@H](Cc2ccc(O)cc2)C(=O)N(C)[C@@H](C)C(=O)N[C@@H](CC(N)=O)C(=O)N2CCC[C@H]2C(=O)N[C@@H](CN)C(=O)N[C@@H](CC(C)C)C(=O)N2C[C@H](O)C[C@H]2C(=O)N[C@@H](Cc2c[nH]c3ccccc23)C(=O)N[C@@H](CCN)C(=O)N[C@@H](Cc2cn(CC(=O)O)c3ccccc23)C(=O)N1C [Example 11171] ({CH2CO}-Y[NMeA]NP[Dap]L[Hyp]W[Dab][Trp(1-CH2COOH)][NMeNle][NMeNle]LC[Sar]-X13; thioether N-14)
100 to 1600 nM | CCCC[C@H]1C(=O)N(C)[C@@H](CCCC)C(=O)N[C@@H](CC(C)C)C(=O)N[C@H](C(=O)NCCOCCOCCOCCOCCOCCOCCC(=O)NCCCCCCCCCCC(=O)O)CSCC(=O)N[C@@H](Cc2ccc(O)cc2)C(=O)N(C)[C@@H](C)C(=O)N[C@@H](CC(N)=O)C(=O)N2CCC[C@H]2C(=O)N[C@@H](CN)C(=O)N[C@@H](CCC(N)=O)C(=O)N2C[C@H](O)C[C@@H]2C(=O)N[C@@H](Cc2c[nH]c3ccccc23)C(=O)N[C@@H](CCN)C(=O)N[C@@H](Cc2cn(CC(=O)O)c3ccccc23)C(=O)N1C [Example 11061] ({CH2CO}-Y[NMeA]NP[Dap]Q[d(cisHyp)]W[Dab][Trp(1-CH2COOH)][NMeNle][NMeNle]LC[PEG6][Aun]-OH; thioether N-14)
0.3 to 9.9 nM | CCCC[C@H]1C(=O)N(C)[C@@H](CCCC)C(=O)N[C@@H](CC(C)C)C(=O)N[C@H](C(=O)NCC(=O)N[C@@H](Cc2cn(CCOCCOCCOCCOCCOCCOCCOCCOCCOCCOCCOCCNC(=O)CCCNC(=O)CCCCCCCCCCCCCCCCC(=O)O)nn2)C(=O)O)CSCC(=O)N[C@@H](Cc2ccc(O)cc2)C(=O)N(C)[C@@H](C)C(=O)N[C@@H](CC(N)=O)C(=O)N2CCC[C@H]2C(=O)N[C@@H](CN)C(=O)N[C@@H](CC(C)C)C(=O)N2C[C@H](O)C[C@H]2C(=O)N[C@@H](Cc2c[nH]c3ccccc23)C(=O)N[C@@H](CCN)C(=O)N[C@@H](Cc2cn(CC(=O)O)c3ccccc23)C(=O)N1C [Example 14125]
